Measurements published in US10493061B2, “Compositions and methods comprising 2-(acylamino)imidazoles” (priority 2014, dated 2019).
pIC50, pKd: −log10 of the molar value. In brackets after ≈: the same amount, converted by molar mass. Several values for one entry are separate records, joined by “and”; a condition that tells them apart may be missing. Identical values can stand only once. Like-named read-outs stand apart in the source and are kept apart here.

Experiments:
Candida albicans = assay: MIC determination in 96-well plates; assay type: cell-based, Candida albicans (ATCC 90028); conditions: read-out: MIC100
A. baumanii = assay: MIC determination in 96-well plates; assay type: cell-based, Acinetobacter baumannii (ATCC 19606); conditions: Acinetobacter baumannii; read-out: MIC100
CEM-TART cells = assay: Cytotoxicity in CEM-TART cells; assay type: cell-based
[1] = ITC binding of naamidine A to ZnCl2; conditions: ITC with significant amounts of MeOH; reasonable approximation
From the text: While this is believed to be a reasonable approximation of this binding, these ITC experiments were convoluted by solubility issues of the different species, requiring significant amounts of MeOH which can affect the accuracy of ITC experiments. Fisicaro et al. Thermochim. Acta 2014, 586 (0), 40-44. With a Zn^2+ binding affinity in the high nanomolar range, NA's phenotypic activity is likely a result of both kinase modulation and zinc binding.

[2] = in vivo, mouse models (Ireland et al.); cited from earlier work
[3] = system: Mycobacterium tuberculosis; assay: microbe, parasite or virus in culture; conditions: read-out: IC50 (anti-proliferative activity)
Protocol: (§1) Library screening and MIC determination for the compounds were performed in 96-well plates as described previously in Koch et al. Planta Med 2009; 75(12): 1326-1330. Different media were used for respective test organisms. […] Mycobacterium tuberculosis H37Ra (ATCC 25177) was grown in 7H9 medium with ADC supplement (Remel, Lenexa, Kans.). Final well volume was 200 μL. […] The remaining wells received 1 μL of test compound in DMSO, in triplicates for MIC determination. Incubation was overnight at 37° C. for other organisms except for M. tuberculosis which was incubated for 5 days. B. subtilis and M. tuberculosis received 11 μL of sterile 5 mg/mL 3-(4,5-dimethylthiazol-2-yl)-2,5-diphenyltetrazolium bromide (MTT) in PBS on day 1 or 4, respectively. Formazan precipitate was dissolved with 50 μL solubilization reagent (50% DMF, 5% SDS, 45% water). Plates were evaluated on a Muliskan FC plate reader (Fisher Scientific, Waltham, Mass.).

[4] = Zn^2+ binding, (ZNA)2Zn dimer formation (MeOH precipitation, X-ray, NMR)
From the text: The structure of the solid product was confirmed by X-ray crystallography (FIG. 14B). […] HCl in D2O protonates the ligand off the metal center, as evidenced by the disappearance of the diastereotopic benzyllic AB quartet in the dimer and its appearance as a singlet in the monomer. […] Of the analogues evaluated, those with more electron-donating groups at C5 or on the N^2-carbonyl seem to improve activity.

MCF-7s = assay: Cell viability of MCF-7 cells treated with ZNA and ZNA analogues; assay type: cell-based, human; conditions: ZNA analogues and metabolite; assay not further specified
From the text: Of the analogues evaluated, those with more electron-donating groups at C5 or on the N^2-carbonyl seem to improve activity.

in vivo = assay: in vivo; parameters: species or system Sprague-Dawley rats; conditions: female, Sprague-Dawley, rat
Protocol: ZNA has promising pkpd parameters. An initial pharmacokinetic (PK) analysis on ZNA was performed at 1 mg/kg IV, 5 mg/kg PO. ZNA was dosed to female Sprague-Dawley rats at either 1 mg/kg intravenously or at 5 mg/kg orally. Plasma was collected with K2EDTA and stored at −80° C. until analysis. Quantification of ZNA was performed by protein precipitation followed by ultra-high performance liquid chromatography (UHPLC) interfaced to an electrospray ionization quadrapole time-of-flight mass spectrometer (ESI-QTOF). Plasma concentrations were determined from a calibration curve using […]. The values determined were fit with Phoenix WinNonlin and pharmacokinetic values reported.
The plasma concentrations for ZNA were very low, and most samples fell below the lower limit of quantification for the assay (10.0 ng/mL). This limited the data available for fitting in WinNonlin. To increase the amount of data for fitting, values from below the curve were extrapolated to approximately 40% of the LLOQ and were used for PK fitting. The percent of the area extrapolated in the PO PK animals ranged from 34-70% which was considered quite high. […] The oral bioavailability determined was approximately 6%. This value is considered a rough estimate based upon the area extrapolated and the unusually high clearance determined. […] Possible explanations for the high clearance are binding of compound to red blood cells, extremely rapid clearance that requires collection of earlier time points to establish a more accurate CO, and extrahepatic elimination.

[5] = system: Mycobacterium tuberculosis; conditions: read-out: IC50 (anti-proliferative activity); MTT assay
Protocol: as §1

Structure (SMILES): COc1ccc(Cc2nc(NC3=NC(=O)N(C)C3=O)n(C)c2Cc2ccc(O)cc2)cc1 [Naamidine A]
- MIC (Candida albicans): 0.78 µM (≈ 0.338 µg/mL)
- MIC (A. baumanii): 79 µM (≈ 34.2 µg/mL)
- selectivity ratio (CEM-TART cells; CEM-TART IC50 relative to M. tuberculosis IC50): 37
- pIC50 (CEM-TART cells; CEM-TART cells): 4.46
- pKd [1]: ~6.46
- maximum tolerated dose [2]: 25 mg/kg
- IC50 [3]: 940 nM and 0.41 µg/mL

Structure (SMILES): COc1ccc(-c2c(Cc3ccccc3)nc(N(C)C(=O)c3ccccc3F)n2C)cc1 [ZNA-17, N-(4-Benzyl-5-(4-methoxyphenyl)-1-methyl-1H-imidazol-2-yl)-2-fluoro-N-methylbenzamide]
- Zn^2+ binding [4]: incapable of binding Zn^2+
- activity (MCF-7s): not active

Structure (SMILES): Cn1c(-c2ccc(O)cc2)c(Cc2ccccc2)[nH]/c1=N\C(=O)c1ccccc1F [ZNA-18, (E)-N-(4-Benzyl-5-(4-hydroxyphenyl)-1-methyl-1H-imidazol-2(3H)-ylidene)-2-fluorobenzamide]
- activity (MCF-7s): active
- ratio of major circulating metabolite to ZNA (in vivo): 1:1

Structure (SMILES): COc1ccc(-c2c3cc(OC)c(OC)cc3cc3c2nc(N)n3C)cc1 [kealiinine B, Kealiinine B]
- pIC50 [5]: 5.05

Structure (SMILES): COc1ccc(-c2c3nc(N)n(C)c3cc3cc(OC)c(OC)c(OC)c23)cc1 [kealiinine C, Kealiinine C]
- pIC50 [5]: 4.38
